For test [1], the system named is cultured human mast cells (CHMC). Put plainly: CHMC low cell density IgE activation: tryptase assay. The settings on record: IgE activation. It counts as cell-based. The method, boiled down:
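Tryptase release, fluorogenic substrate, 30 min RT. Prior anti-IgE stimulation of CHMC, 30 min, 37 °C, after 1 hr preincubation at 1000–1500 cells/well in MT; unstimulated wells received MT.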

Test [2] shares this test system. Put plainly: CHMC low cell density ionomycin activation: tryptase assay. It counts as cell-based. The settings on record: read-out: LD Tryptase, CHMC, Iono, 3 pt.
Where [3] appears, read: Homo sapiens, Mast cell, low cell density, 3 pt, read-out: LD Tryptase, CHMC, IgE, 3 pt.
The mark [4] stands for this setting: Homo sapiens, Mast cell, low cell density, 8 pt, read-out: LD Tryptase, CHMC, IgE, 8 pt.
The mark [5] stands for this setting: Homo sapiens, Mast cell, low cell density, 3 pt.
[6] abbreviates: Homo sapiens, Mast cell, low cell density CHMC, tryptase, 8 pt, read-out: LD Tryptase, CHMC, IgE, 8 pt.
[7] abbreviates: Homo sapiens, Mast cell, low cell density CHMC, tryptase, 3 pt.
[8] abbreviates: Homo sapiens, Mast cell, low cell density CHMC, tryptase, 3 pt, read-out: LD Tryptase, CHMC, IgE, 3 pt.
Setting [9] is: low cell density, 3 pt, read-out: LD Tryptase, CHMC, IgE, 3 pt.
The mark [10] stands for this setting: low cell density CHMC, tryptase, 3 pt, read-out: LD Tryptase, CHMC, IgE, 3 pt.
[11] abbreviates: low cell density CHMC, tryptase, 8 pt, read-out: LD Tryptase, CHMC, IgE, 8 pt.
[12] abbreviates: low cell density CHMC, tryptase, 3 pt.
Where [13] appears, read: Homo sapiens, Mast cell, low cell density CHMC, tryptase release, 3 pt, read-out: LD Tryptase, CHMC, IgE, 3 pt.
Setting [14] is: Homo sapiens, Mast cell, low cell density CHMC, tryptase release, 8 pt, read-out: LD Tryptase, CHMC, IgE, 8 pt.
Where [15] appears, read: Homo sapiens, Mast cell, low cell density CHMC, tryptase release, 3 pt.
Where [16] appears, read: Homo sapiens, Mast cell, low cell density CHMC, tryptase release, 3 point, read-out: LD Tryptase, CHMC, IgE, 3 pt.
The mark [17] stands for this setting: Homo sapiens, Mast cell, low cell density CHMC, tryptase release, 8 point, read-out: LD Tryptase, CHMC, IgE, 8 pt.
Setting [18] is: Homo sapiens, Mast cell, low cell density CHMC, tryptase release, 3 point.
[19] abbreviates: low cell density CHMC, tryptase release, 3 point, read-out: LD Tryptase, CHMC, IgE, 3 pt.
Setting [20] is: low cell density CHMC, tryptase release, 8 point, read-out: LD Tryptase, CHMC, IgE, 8 pt.
Setting [21] is: low cell density CHMC, tryptase release, 3 point.
[22] abbreviates: low cell density, 8 pt, read-out: LD Tryptase, CHMC, IgE, 8 pt.
The mark [23] stands for this setting: low cell density CHMC, tryptase readout, 8 pt, read-out: LD Tryptase, CHMC, IgE, 8 pt.
The mark [24] stands for this setting: low cell density CHMC, tryptase readout, 3 pt.

On to `COc1cc(OC)cc(N(C)c2nc(Nc3ccc(OC)nc3OC)ncc2F)c1` [Compound 457], for which the IC50 in test [1] (setting [3]), in test [1] (setting [4]) and in test [2] (setting [5]) was under 10 µM throughout.

Turning to `CCCn1ncc2ccc(Nc3ncc(F)c(Nc4ccc(OC)c(Cl)c4)n3)cc21` [Compound 706, N4-(3-Chloro-4-methoxyphenyl)-5-fluoro-N2-(1-n-propylindazol-6-yl)-2,4-pyrimidinediamine], the IC50 in test [1] (setting [6]) and in test [2] (setting [7]) was under 10 µM throughout.

As to `COC(=O)c1cc2cc(Nc3ncc(F)c(N(C)c4cc(OC)cc(OC)c4)n3)ccc2o1` [Compound 401], the IC50 in test [1] (setting [8]) and in test [2] (setting [7]) was under 10 µM each time.

In the case of `CN1C(=O)C(C)(C)Oc2ccc(N(C)c3nc(Cl)ncc3F)nc21` [Compound 1005, 2-Chloro-5-fluoro-N4-methyl-N4-(3-oxo-2,2,4-trimethyl-5-pyrid[1,4]oxazin-6-yl)-4-pyrimidineamine], the IC50 in test [1] (setting [9]) was under 10 µM; in test [2] (low cell density, 3 pt), over 10 µM.

As to `CN1C(=O)C(C)(C)Oc2ccc(N(C)c3nc(Nc4ccc(-c5ncco5)cc4)ncc3F)cc21` [Compound 1024], the IC50 in test [1] (Homo sapiens, Mast cell, low cell density CHMC, tryptase readout, 3 pt, read-out: LD Tryptase, CHMC, IgE, 3 pt) is under 10 µM; in test [2] (Homo sapiens, Mast cell, low cell density CHMC, tryptase readout, 3 pt), under 10 µM.

Take `CC(C)(C)OC(=O)NCC(=O)NCc1ccc(Nc2ncc(F)c(Nc3ccc4c(c3)NC(=O)C(C)(C)O4)n2)cc1` [Compound 1307, N2-[4-[1-(tert-Butoxycarbonylamino)methylenecarbonylamino]methylphenyl]-N4-(2,2-dimethyl-3-oxo-4H-benz[1,4]oxazin-6-yl)-5-fluoro-2,4-pyrimidinediamine]: the IC50 in test [1] (setting [10]), in test [1] (setting [11]) and in test [2] (setting [12]) was under 10 µM throughout.

As to `COc1cc(Nc2ncc(F)c(Nc3ccc4c(c3)N(C)C(=O)CS4)n2)cc(OC)c1` [Compound 260], the IC50 is under 10 µM in test [1] (setting [13]), under 10 µM in test [1] (setting [14]) and over 10 µM in test [2] (setting [15]).

As for `CNC(=O)c1ccc(Nc2ncc(F)c(Nc3ccc(Cl)c(C(F)(F)F)c3)n2)cc1Cl` [Compound 612, N2-[3-Chloro-4-(N-methylamino)carbonylphenyl]-N4-(4-chloro-3-trifluoromethylphenyl)-5-fluoro-2,4-pyrimidinediamine], the results for the IC50 in test [1] (setting [16]), in test [1] (setting [17]) and in test [2] (setting [18]) were under 10 µM, under 10 µM and over 10 µM, respectively.

Regarding `CC(C)Oc1ccc(N(C)c2nc(Cl)ncc2F)cn1` [Compound 576], the IC50 in test [1] (setting [16]) and in test [2] (setting [18]) was over 10 µM throughout.

In the case of `O=C1Nc2cc(Nc3nc(Nc4ccc(-c5cnco5)cc4)ncc3F)ccc2OC1CCO` (stereo not drawn) [Compound 227], the IC50 was under 10 µM in test [1] (setting [13]), under 10 µM in test [1] (setting [14]) and over 10 µM in test [2] (setting [15]).

As to `COc1cc(Nc2ncc(F)c(N(C)c3ccc(Cl)c(OC)c3)n2)cc(OC)c1` [Compound 587, N4-(4-Chloro-3-methoxyphenyl)-N2-(3,5-dimethoxyphenyl)-5-fluoro-N4-methyl-2,4-pyrimidinediamine], the figures for the IC50 in test [1] (setting [16]), in test [1] (setting [17]) and in test [2] (setting [18]) were under 10 µM, under 10 µM and over 10 µM, respectively.

As for `CNC(=O)COc1ccc(Nc2nc(Nc3cc(C)c(Cl)c(C)c3)ncc2F)cc1Cl` [Compound 603, N2-(4-Chloro-3,5-dimethylphenyl)-N4-[3-chloro-4-(N-methylamino)carbonylmethyleneoxyphenyl]-5-fluoro-2,4-pyrimidinediamine], the results for the IC50 in test [1] (setting [19]), in test [1] (setting [20]) and in test [2] (setting [21]) were under 10 µM, over 10 µM and over 10 µM, respectively.

For the compound `CNS(=O)(=O)c1ccc(Nc2ncc(F)c(Nc3ccc(Cl)c(C(F)(F)F)c3)n2)cc1OC` [Compound 497, N4-(4-Chloro-3-trifluoromethylphenyl)-5-fluoro-N2-[3-methoxyphenyl-4-(methylamino)sulfonyl]-2,4-pyrimidinediamine], the IC50 is under 10 µM in test [1] (setting [9]); under 10 µM in test [1] (setting [22]); over 10 µM in test [2] (low cell density, 3 pt).

`CC(=O)N1CCN(c2cccc(Nc3ncc(F)c(NC4CCCC4)n3)c2)CC1` [Compound 1159, N2-[3-(4-Acetylpiperazino)phenyl]-N4-cyclopentyl-5-fluoro-2,4-pyrimidinediamine]: the IC50 in test [1] (setting [8]) is under 10 µM; in test [2] (setting [7]) it was over 10 µM.

With `Fc1cnc(Nc2cc(-c3ncco3)cc(C(F)(F)F)c2)nc1Nc1ccc2c(c1)OCCO2` [Compound 519, N4-(3,4-Ethylenedioxyphenyl)-5-fluoro-N2-[3-(oxazol-2-yl)-5-trifluoromethylphenyl]-2,4-pyrimidinediamine], the IC50 in test [1] (setting [3]) is under 10 µM; in test [2] (setting [5]), over 10 µM.

For the compound `COc1ccc(Nc2nc(Nc3cc(C)cc(C)c3)ncc2F)cc1OC` [Compound 413], the IC50 in test [1] (setting [8]) is under 10 µM; in test [1] (setting [6]), under 10 µM; in test [2] (setting [7]) it was over 10 µM.

In the case of `CN1CCOc2ccc(Nc3nc(Nc4ccc(-c5cnco5)cc4)ncc3F)cc21` [Compound 228], the figures for the IC50 in test [1] (setting [13]), in test [1] (setting [14]) and in test [2] (setting [15]) were under 10 µM, under 10 µM and over 10 µM, respectively.

Regarding `Cc1cc(Nc2ncc(F)c(Nc3ccc4c(n3)NC(=O)C(C)(C)O4)n2)cc(Cl)c1OC(C)C` [Compound 1040, N2-(3-Chloro-4-isopropoxy-5-methylphenyl)-N4-(2,2-dimethyl-3-oxo-4H-5-pyrid[1,4]oxazin-6-yl)-5-fluoro-2,4-pyrimidinediamine], the IC50 in test [1] (setting [23]) was over 10 µM; in test [2] (setting [24]), under 10 µM.

As to `Fc1cnc(Nc2cccc(N3CCOCC3)c2)nc1N[C@H]1CCN(Cc2ccccc2)C1` [Compound 1184], the IC50 in test [1] (setting [8]) was under 10 µM; in test [2] (setting [7]), over 10 µM.

Turning to `O=C1Nc2cc(Nc3nc(Nc4cccc(-c5ncco5)c4)ncc3F)ccc2OC1CCO` (stereo not drawn) [Compound 221], the IC50 in test [1] (setting [13]) was under 10 µM; in test [1] (setting [14]) it was under 10 µM; in test [2] (setting [15]), over 10 µM.

`CCOC(=O)C(C)(C)Oc1ccc(Nc2nc(Nc3ccc(C(=O)NC)c(Cl)c3)ncc2F)cc1Cl` [Compound 467, N4-[3-Chloro-4-(ethoxycarbonyl-1,1-dimethylmethyleneoxy)phenyl]-N2-[3-chloro-4-(N-methylamino)carbonylphenyl]-5-fluoro-2,4-pyrimidinediamine]: the IC50 in test [1] (setting [9]) is under 10 µM; in test [1] (setting [22]), under 10 µM; in test [2] (low cell density, 3 pt), under 10 µM.

Turning to `COc1c(C)cc(Nc2ncc(F)c(Nc3ccc4c(n3)N(C)C(=O)C(C)(C)O4)n2)cc1Cl` [Compound 1009, N2-(3-Chloro-4-methoxy-5-methylphenyl)-5-fluoro-N4-(3-oxo-2,2,4-trimethyl-5-pyrid[1,4]oxazin-6-yl)-2,4-pyrimidinediamine], the IC50 in test [1] (low cell density CHMC, tryptase readout, 3 pt, read-out: LD Tryptase, CHMC, IgE, 3 pt) is under 10 µM; in test [1] (setting [23]), under 10 µM; in test [2] (setting [24]), over 10 µM.

For the compound `CNC(=O)CNC(=O)c1ccc(Nc2ncc(F)c(N(C)c3ccc(Cl)c(Cl)c3)n2)cc1` [Compound 1301, N4-(3,4-Dichlorophenyl)-5-fluoro-N4-methyl-N2-[4-[N-(N-methylamino)carbonylmethylene]aminocarbonylphenyl]-2,4-pyrimidinediamine], the IC50 in test [1] (setting [10]) was under 10 µM; in test [1] (setting [11]), under 10 µM; in test [2] (setting [12]), over 10 µM.

Turning to `CN(c1ccc2c(c1)OC(F)(F)C(F)(F)O2)c1nc(Nc2cccc(-c3ncco3)c2)ncc1F` [Compound 634], the IC50 in test [1] (setting [19]) is over 10 µM; in test [1] (setting [20]), under 10 µM; in test [2] (setting [21]), over 10 µM.

Regarding `COc1cc(Nc2ncc(F)c(Nc3ccc(C)cn3)n2)cc(OC)c1` [Compound 508, N2-(3,5-Dimethoxyphenyl)-5-fluoro-N4-(3-methylpyrid-6-yl)-2,4-pyrimidinediamine], the IC50 is under 10 µM in test [1] (setting [3]), under 10 µM in test [1] (setting [4]) and over 10 µM in test [2] (setting [5]).

For `CNC(=O)COc1cccc(Nc2ncc(F)c(N(C)c3ccc4c(c3)OCCO4)n2)c1` [Compound 385, N4-(3,4-Ethylenedioxyphenyl)-5-fluoro-N4-methyl-N2-[3-(N-methylamino)carbonylmethyleneoxyphenyl]-2,4-pyrimidinediamine], the figures for the IC50 in test [1] (setting [10]), in test [1] (setting [11]) and in test [2] (setting [12]) were under 10 µM, under 10 µM and over 10 µM, respectively.

These data come from patent US20220073536A1 (Rigel Pharmaceuticals, Inc., priority 2003, published 2022).
